# ChEMBL document CHEMBL2073771, “Dibenzocyclooctadiene lignans: a class of novel inhibitors of multidrug resistance-associated protein 1” (Life Sci, 2006)
# pIC50: −log10 of the molar value.
# Experiments:
# Type in all cases: functional, cell-based
# [1] = molecular target: T1, Multidrug resistance-associated protein 1 (Homo sapiens, UniProt P33527); test: TP_TRANSPORTER: inhibition of DNR transport in HL60/MRP cells
# [2] = molecular target: T1, Multidrug resistance-associated protein 1; test: TP_TRANSPORTER: inhibition of VP-16 transport in HL60/MRP cells
# [3] = molecular target: T1, Multidrug resistance-associated protein 1; test: TP_TRANSPORTER: inhibition of VP-16 transport in HL60/ADR cells (overexpression of MRP1)
# [4] = molecular target: T1, Multidrug resistance-associated protein 1; test: TP_TRANSPORTER: inhibition of VCR transport in HL60/MRP cells
# [5] = molecular target: T1, Multidrug resistance-associated protein 1; test: TP_TRANSPORTER: inhibition of VCR transport in HL60/ADR cells (overexpression of MRP1)
# [6] = molecular target: T1, Multidrug resistance-associated protein 1; test: TP_TRANSPORTER: inhibition of DNR transport in HL60/ADR cells (overexpression of MRP1)
# T1 sequence (P33527 whole entry): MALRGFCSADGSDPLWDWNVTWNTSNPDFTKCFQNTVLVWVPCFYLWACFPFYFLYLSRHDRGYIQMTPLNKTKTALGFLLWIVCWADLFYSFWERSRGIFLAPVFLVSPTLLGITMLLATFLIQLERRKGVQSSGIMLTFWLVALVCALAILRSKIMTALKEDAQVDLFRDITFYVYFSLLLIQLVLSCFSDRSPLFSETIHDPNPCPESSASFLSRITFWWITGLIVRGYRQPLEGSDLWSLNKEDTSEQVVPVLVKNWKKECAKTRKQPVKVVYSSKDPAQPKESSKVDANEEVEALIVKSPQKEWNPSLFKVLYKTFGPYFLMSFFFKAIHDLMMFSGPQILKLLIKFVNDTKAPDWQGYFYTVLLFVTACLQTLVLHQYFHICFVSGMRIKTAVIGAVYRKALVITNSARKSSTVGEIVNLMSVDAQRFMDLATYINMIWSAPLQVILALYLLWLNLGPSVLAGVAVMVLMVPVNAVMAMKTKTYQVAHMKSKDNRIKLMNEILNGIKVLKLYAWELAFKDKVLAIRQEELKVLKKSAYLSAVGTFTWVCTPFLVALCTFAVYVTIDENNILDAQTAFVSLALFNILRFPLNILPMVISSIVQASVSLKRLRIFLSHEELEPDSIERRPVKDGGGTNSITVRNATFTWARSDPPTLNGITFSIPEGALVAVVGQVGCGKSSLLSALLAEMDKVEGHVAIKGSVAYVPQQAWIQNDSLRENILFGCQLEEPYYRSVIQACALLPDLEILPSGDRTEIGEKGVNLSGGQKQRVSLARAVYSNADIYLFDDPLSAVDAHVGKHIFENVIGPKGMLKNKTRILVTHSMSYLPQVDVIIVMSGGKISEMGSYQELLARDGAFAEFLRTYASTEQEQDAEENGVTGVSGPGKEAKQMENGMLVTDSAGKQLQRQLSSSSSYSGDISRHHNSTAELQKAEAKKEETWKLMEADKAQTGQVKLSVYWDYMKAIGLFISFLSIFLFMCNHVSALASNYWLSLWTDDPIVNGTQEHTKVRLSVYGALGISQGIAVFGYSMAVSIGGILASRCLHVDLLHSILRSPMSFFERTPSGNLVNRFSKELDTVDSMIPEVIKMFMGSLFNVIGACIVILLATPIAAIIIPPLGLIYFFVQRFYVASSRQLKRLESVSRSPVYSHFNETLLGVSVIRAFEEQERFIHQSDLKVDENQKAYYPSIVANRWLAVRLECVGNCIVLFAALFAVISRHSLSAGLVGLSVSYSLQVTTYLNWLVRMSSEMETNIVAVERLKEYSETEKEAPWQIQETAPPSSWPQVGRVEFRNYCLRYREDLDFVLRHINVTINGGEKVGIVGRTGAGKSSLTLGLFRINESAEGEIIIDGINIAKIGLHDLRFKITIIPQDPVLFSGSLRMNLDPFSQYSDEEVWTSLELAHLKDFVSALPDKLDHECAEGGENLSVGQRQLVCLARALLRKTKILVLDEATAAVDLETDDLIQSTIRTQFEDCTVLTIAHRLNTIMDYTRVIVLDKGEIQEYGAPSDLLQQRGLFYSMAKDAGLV
Structure (SMILES),pIC50 [1],pIC50 [2],pIC50 [3],pIC50 [4],pIC50 [5],pIC50 [6]
COc1cc2c(c(OC)c1OC)-c1c(cc3c(c1OC)OCO3)CC(C)C(C)C2 (centres undefined) [SCHISANDRIN B],6.69,5.65,5.38,8.02,8.90,6.85
COc1cc2c(c(OC)c1OC)-c1c(cc3c(c1OC)OCO3)C[C@H](C)[C@@](C)(O)C2 [GOMISIN A],6.74,5.56,5.11,8.03,9.02,6.91
COc1cc2c(c(OC)c1OC)-c1c(cc(OC)c(OC)c1OC)C[C@](C)(O)[C@@H](C)C2 [SCHIZANDRIN],6.66,5.49,5.14,8.09,8.94,6.90
COc1cc2c(c(OC)c1OC)-c1c(cc(OC)c(OC)c1OC)C[C@H](C)[C@H](C)C2 [SCHISANDRIN A],6.81,5.63,5.31,8.16,8.01,6.85
